What was measured:
[1] = target: Human immunodeficiency virus type 1 protease (Human immunodeficiency virus 1) (UniProt Q72874); test: Ratio of inactivation constant (Kina) and inhibition constant (Ki) was determined
[2] = target: Human immunodeficiency virus type 1 protease (Human immunodeficiency virus 1, UniProt Q72874); test: Compound was tested for the inhibition activity against HIV-1 protease
H9 [3] = test: Tested for the inhibitory activity against HIV-1 in H-9 cell lines assessed by syncytium formation and reverse transcriptase assay; assay type: functional, cell-based; conditions: Homo sapiens
SUP-T1 [4] = test: Tested for the inhibitory activity against HIV-1 in Sup T1 cell lines assessed by syncytium formation and reverse transcriptase assay; assay type: functional, cell-based; conditions: Homo sapiens
[5] = target: Human immunodeficiency virus type 1 protease (Human immunodeficiency virus 1) (UniProt Q72874); test: Rate of irreversible inactivation of HIV 1 protease by the compound was determined
SUP-T1 [6] = test: 50% Cytoxic value against HIV-1 in Sup T1 cell lines was evaluated; assay type: functional, Homo sapiens
H9 [7] = test: Tested for the inhibitory activity against HIV-1 in H-9 and Sup T1 cell lines assessed by syncytium formation and reverse transcriptase assay; assay type: functional, cell-based; conditions: Homo sapiens
H9 [8] = test: 50% Cytoxic value against HIV-1 in H-9 cell lines was evaluated; assay type: functional, Homo sapiens

Row | SMILES | K inact/Ki [1] [M⁻¹ s⁻¹] | Ki [2] [nM] | other results
1 | CC(C)[C@H](NC(=O)OCc1cccnc1)C(=O)NC[C@@H]1O[C@@H]1[C@H](Cc1ccccc1)NC(=O)[C@H](NC(=O)OCc1cccnc1)C(C)C | 23300 | 70 | 
2 | CC(C)(C)NC(=O)[C@@H]1C[C@@H]2CCCC[C@@H]2CN1C[C@@H](O)[C@H](Cc1ccccc1)NC(=O)[C@H](CC(N)=O)NC(=O)c1ccc2ccccc2n1 [SAQUINAVIR] |  |  | IC50 (H9 [3]): 20 nM; IC50 (SUP-T1 [4]): 20 nM
3 | O=[N+]([O-])c1ccc(OCC2CO2)cc1 (centres undefined) |  |  | Kina [5]: 0.004 min⁻¹
4 | CC(C)[C@H](NC(=O)OCc1ccncc1)C(=O)NC[C@@H]1O[C@@H]1[C@H](Cc1ccccc1)NC(=O)[C@H](NC(=O)OCc1ccncc1)C(C)C | 5670 | 300 | 
5 | CC(C)[C@H](NC(=O)N(C)Cc1ccccn1)C(=O)NC[C@@H]1O[C@@H]1[C@H](Cc1ccccc1)NC(=O)[C@H](NC(=O)N(C)Cc1ccccn1)C(C)C | 367000 | 16 | 
6 | CC(C)[C@H](NC(=O)OCc1ccccc1)C(=O)N[C@@H](Cc1ccccc1)[C@H](O)[C@H](O)[C@H](Cc1ccccc1)NC(=O)[C@@H](NC(=O)OCc1ccccc1)C(C)C |  | < 1 | 
7 | CC(C)[C@H](NC(=O)OCc1ccccc1)C(=O)N[C@@H](Cc1ccccc1)C1OC1[C@H](Cc1ccccc1)NC(=O)[C@@H](NC(=O)OCc1ccccc1)C(C)C (some centres undefined) |  | 75 | 
8 | CC(C)[C@H](NC(=O)OCc1ccccc1)C(=O)NC[C@@H]1O[C@@H]1[C@H](Cc1ccccc1)NC(=O)[C@H](NC(=O)OCc1ccccc1)C(C)C | 2.5e+06 | 0.1 | IC50 (SUP-T1 [4]): 30 nM; CT50 (SUP-T1 [6]): >100 µM; IC50 (H9 [7]): 30 nM; CT50 (H9 [8]): >100 µM
9 | CC(C)[C@H](NC(=O)OCc1ccccc1)C(=O)NC(C)[C@@H]1O[C@@H]1[C@H](Cc1ccccc1)NC(=O)[C@H](NC(=O)OCc1ccccc1)C(C)C (some centres undefined) | 667000 | 4 | 
10 | CC(C)[C@H](NC(=O)N(C)Cc1ccccn1)C(=O)N[C@@H](Cc1ccccc1)[C@@H](O)[C@H](O)[C@H](Cc1ccccc1)NC(=O)[C@@H](NC(=O)N(C)Cc1ccccn1)C(C)C |  | < 1 | 
11 | Cc1cn([C@H]2C[C@H](N=[N+]=[N-])[C@@H](CO)O2)c(=O)[nH]c1=O [ZIDOVUDINE] |  |  | IC50 (H9 [3]): 50 nM; IC50 (SUP-T1 [4]): 50 nM
12 | CC(C)[C@H](NC(=O)OCc1ccccn1)C(=O)NC[C@@H]1O[C@@H]1[C@H](Cc1ccccc1)NC(=O)[C@H](NC(=O)OCc1ccccn1)C(C)C | 383000 | 11 | 
